Source: patent US20210255193A1, “LYSINE REACTIVE PROBES AND USES THEREOF” (The Scripps Research Institute, priority 2017, published 2021)

Experiments:
HK1 = target: T1, HK1 (Homo sapiens, UniProt P19367); assay: direct labeling of recombinantly expressed proteins by gel-based ABPP (WT vs lysine mutant); assay type: binding; conditions: HK1 K510, KR mutant; 10 μM probe, 1 h
T1 construct: Flag; expressed in transfected cells; host or cells: HEK 293T
T1 sequence (P19367 1-917): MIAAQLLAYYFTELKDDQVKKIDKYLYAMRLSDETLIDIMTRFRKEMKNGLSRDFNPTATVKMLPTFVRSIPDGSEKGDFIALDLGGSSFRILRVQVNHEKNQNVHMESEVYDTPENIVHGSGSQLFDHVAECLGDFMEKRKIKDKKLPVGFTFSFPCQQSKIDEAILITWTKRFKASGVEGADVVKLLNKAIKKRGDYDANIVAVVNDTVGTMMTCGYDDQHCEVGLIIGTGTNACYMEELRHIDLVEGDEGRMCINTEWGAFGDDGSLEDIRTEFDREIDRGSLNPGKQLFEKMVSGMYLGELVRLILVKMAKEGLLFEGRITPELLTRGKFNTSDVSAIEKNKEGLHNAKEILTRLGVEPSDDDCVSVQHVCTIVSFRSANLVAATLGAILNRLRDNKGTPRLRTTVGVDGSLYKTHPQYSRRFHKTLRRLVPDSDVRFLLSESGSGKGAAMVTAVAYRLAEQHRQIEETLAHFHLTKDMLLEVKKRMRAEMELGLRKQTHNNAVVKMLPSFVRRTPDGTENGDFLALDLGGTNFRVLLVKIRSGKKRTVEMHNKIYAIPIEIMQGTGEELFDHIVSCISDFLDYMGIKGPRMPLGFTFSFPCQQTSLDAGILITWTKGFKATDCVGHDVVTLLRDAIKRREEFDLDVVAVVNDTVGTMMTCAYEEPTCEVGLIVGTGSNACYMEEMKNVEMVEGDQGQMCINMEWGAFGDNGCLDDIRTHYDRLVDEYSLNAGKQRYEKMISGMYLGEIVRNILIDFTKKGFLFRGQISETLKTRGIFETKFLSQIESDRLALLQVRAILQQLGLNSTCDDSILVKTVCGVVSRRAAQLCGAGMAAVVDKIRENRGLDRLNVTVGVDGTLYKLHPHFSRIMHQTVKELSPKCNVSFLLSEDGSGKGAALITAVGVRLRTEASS

PNPO = target: T2, PNPO (Homo sapiens, UniProt Q9NVS9); assay: as above; assay type: binding; conditions: PNPO K100, KR mutant; 10 μM probe, 1 h
T2 construct: Flag; expressed in transfected cells; host or cells: HEK 293T, transient transfection, soluble lysate
T2 sequence (Q9NVS9 1-261): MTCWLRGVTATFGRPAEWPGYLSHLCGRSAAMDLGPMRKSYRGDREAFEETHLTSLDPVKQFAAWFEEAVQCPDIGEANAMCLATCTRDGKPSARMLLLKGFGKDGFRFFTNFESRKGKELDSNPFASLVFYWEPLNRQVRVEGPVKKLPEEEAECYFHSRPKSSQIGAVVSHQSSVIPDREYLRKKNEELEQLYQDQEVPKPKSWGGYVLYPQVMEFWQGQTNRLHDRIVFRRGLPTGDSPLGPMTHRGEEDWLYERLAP

SMILES | labeling of WT vs mutant protein by probe (HK1) | labeling of WT vs mutant protein by probe (PNPO)
C#CCCC(=O)Oc1c(F)c(F)c(S(=O)(=O)[O-])c(F)c1F.[Na+] [probe 1, reference compound] | PD (the WT labeled more than the mutant (>2x difference quantified)) | HD (the WT labeled more than the mutant (>4x difference quantified))
C#CCCC(=O)Oc1c(F)c(F)c(F)c(F)c1F [probe 6, Pentafluorophenyl 4-pentynoate] | HD (the WT labeled more than the mutant (>4x difference quantified)) | PD (the WT labeled more than the mutant (>2x difference quantified))
C#Cc1ccc(C(=O)Oc2c(F)c(F)cc(F)c2F)cc1 [probe 12, 2,3,5,6-Tetrafluorophenyl 4-ethynylbenzoate] | ND (the WT did not label more than the mutant (<2x difference quantified)) | PD (the WT labeled more than the mutant (>2x difference quantified))
C#Cc1ccc(C(=O)Oc2c(F)c(F)c(F)c(F)c2F)cc1 [probe 13, Pentafluorophenyl 4-ethynylbenzoate] | ND (the WT did not label more than the mutant (<2x difference quantified)) | ND (the WT did not label more than the mutant (<2x difference quantified))
Cc1cc(C)n2c1C=C1C=CC(CCC(=O)Oc3c(F)c(F)c(S(=O)(=O)[O-])c(F)c3F)=[N+]1[B-]2(F)F.[Na+] [probe 18, reference compound] | ND (the WT did not label more than the mutant (<2x difference quantified)) | PD (the WT labeled more than the mutant (>2x difference quantified))
